Consider three compounds from PMC3855799 (PLoS ONE, 2013).

“And” between values parts separate entries of the source, which are not always exact repeats. Equal entries are not always repeated.

hNav1.7 alpha subunit, sequence (Q15858 1-1977 isoform Q15858-3): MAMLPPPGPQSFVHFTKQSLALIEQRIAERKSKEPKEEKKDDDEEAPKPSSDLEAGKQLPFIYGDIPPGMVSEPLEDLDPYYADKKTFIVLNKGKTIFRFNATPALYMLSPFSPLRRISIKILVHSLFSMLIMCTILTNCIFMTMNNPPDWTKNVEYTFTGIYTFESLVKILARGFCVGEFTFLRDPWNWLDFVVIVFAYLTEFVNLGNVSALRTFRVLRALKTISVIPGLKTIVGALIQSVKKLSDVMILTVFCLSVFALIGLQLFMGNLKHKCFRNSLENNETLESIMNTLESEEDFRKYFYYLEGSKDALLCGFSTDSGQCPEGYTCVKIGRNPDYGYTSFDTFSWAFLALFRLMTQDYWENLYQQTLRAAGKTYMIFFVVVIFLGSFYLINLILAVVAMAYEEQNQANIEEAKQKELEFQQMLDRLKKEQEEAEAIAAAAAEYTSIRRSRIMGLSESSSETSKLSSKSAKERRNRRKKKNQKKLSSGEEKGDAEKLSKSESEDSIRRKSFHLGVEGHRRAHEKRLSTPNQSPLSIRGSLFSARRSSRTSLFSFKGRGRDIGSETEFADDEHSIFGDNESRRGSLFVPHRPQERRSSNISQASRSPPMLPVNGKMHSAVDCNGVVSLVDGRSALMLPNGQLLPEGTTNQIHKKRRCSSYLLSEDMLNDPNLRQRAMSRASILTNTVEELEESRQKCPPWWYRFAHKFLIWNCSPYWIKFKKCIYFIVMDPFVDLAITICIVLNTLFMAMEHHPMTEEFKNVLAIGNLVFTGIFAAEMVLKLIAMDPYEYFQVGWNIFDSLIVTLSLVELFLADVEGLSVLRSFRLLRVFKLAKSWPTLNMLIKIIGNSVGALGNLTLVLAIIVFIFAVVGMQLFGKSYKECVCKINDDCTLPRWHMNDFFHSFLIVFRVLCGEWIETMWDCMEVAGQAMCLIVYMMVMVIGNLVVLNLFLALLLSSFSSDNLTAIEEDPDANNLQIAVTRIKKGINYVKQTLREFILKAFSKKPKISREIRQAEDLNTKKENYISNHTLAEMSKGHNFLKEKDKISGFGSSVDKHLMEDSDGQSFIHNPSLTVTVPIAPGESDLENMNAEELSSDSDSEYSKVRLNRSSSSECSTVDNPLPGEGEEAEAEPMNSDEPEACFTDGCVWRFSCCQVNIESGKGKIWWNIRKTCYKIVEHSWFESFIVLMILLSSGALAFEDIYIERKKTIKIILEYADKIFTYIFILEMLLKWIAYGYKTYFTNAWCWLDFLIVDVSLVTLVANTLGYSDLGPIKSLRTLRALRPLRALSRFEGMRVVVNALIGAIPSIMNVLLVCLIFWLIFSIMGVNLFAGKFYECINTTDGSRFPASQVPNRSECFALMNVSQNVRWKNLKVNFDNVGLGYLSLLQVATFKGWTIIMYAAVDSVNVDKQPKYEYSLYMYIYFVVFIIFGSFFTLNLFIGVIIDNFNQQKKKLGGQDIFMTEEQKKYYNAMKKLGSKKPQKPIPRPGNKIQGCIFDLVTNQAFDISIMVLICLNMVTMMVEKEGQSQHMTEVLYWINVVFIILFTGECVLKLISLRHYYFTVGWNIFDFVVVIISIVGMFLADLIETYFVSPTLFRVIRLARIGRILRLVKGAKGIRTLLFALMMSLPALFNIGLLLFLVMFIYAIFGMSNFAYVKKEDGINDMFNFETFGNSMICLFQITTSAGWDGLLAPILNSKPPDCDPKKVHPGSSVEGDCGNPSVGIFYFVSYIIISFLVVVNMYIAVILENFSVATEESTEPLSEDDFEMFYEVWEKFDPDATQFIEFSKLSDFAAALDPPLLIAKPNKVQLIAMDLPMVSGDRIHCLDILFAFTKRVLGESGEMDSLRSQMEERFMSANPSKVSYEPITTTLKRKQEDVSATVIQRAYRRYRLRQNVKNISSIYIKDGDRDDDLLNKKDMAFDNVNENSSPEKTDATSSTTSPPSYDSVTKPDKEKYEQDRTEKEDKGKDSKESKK

The test has as its target hNav1.7 alpha subunit (Homo sapiens, UniProt Q15858). Briefly: Electrophysiology using Sophion QPatch: inhibition of hNav1.7 currents. The format is cell-based. The following applies: QPatch 16X whole cell voltage clamp, hNav1.7 alpha HEK 293; holding -80 mV, -120mV for 100ms, step to 0mV; peak inward current; cumulative doses 100pM to 10µM, 10 minutes per dose; extracellular buffer pH 7.4 + 0.1% BSA; n = 9-11 (given for HwTx-IV(acid)); spread type not stated; read-out: IC50 on Nav1.7. The protocol:
Electrophysiology using Sophion QPatch^TM
hNav1.7 alpha HEK 293 cell line (NM_002977.2) was obtained from Millipore and cells were cultured in a 50/50 mix of DMEM and Hams F-12 growth media supplemented with 10% FBS. Cells were passaged by Detachin (Genlantis) treatment (5 minutes), seeded 48-72 hours prior to experiments and used between passage 5 and 10. Cells were harvested at 70% confluency and resuspended by trituration in 8ml of Ex-cell ACF CHO serum free media (Sigma) + 20mM HEPES giving a cell density of 2-3x10^6cells/ml.
Solutions for electrophysiology: Extracellular solution contained (in mM) NaCl (145), KCl (2), CaCl2 (2), MgCl2 (1), HEPES (10), pH 7.4 with NaOH, osmolarity adjusted to 300 mOsm with sucrose. Intracellular solution contained (in mM), CsF (140), NaCl (10), EGTA (1), HEPES (10), pH 7.2 with CsOH, osmolarity adjusted to 325 mOsm with sucrose.
Serial dilutions were made in extracellular buffer + 0.1% BSA. Cumulative dose response curves were constructed with doses of 1e-10 to 1e-5M (100pM to 10µM). Each dose was applied for 10 minutes with 3x5µl compound additions spaced 2 seconds apart (Note that complete solution exchange is achieved with volumes of ~2µl).
Nav1.7 currents were measured using the automated electrophysiology platform Qpatch 16X (Sophion) in single hole configuration. […] To measure Nav1.7 currents, membrane potential was held at -80 mV then stepped to -120mV for 100ms to remove fast inactivation, followed by a step to 0mV for 10ms to activate Nav1.7 then returned to -120mV for 100ms. This voltage protocol was repeated at a rate of 0.2Hz with a the membrane potential held at -80mV between sweeps. Data were sampled at 10kHz and filtered using a 4 pole Bessel filter at 3kHz. P/N leak subtraction was utilized with a leak sweep of -10%. Series resistance was compensated 75% as standard. Liquid junction potentials were not corrected.
Peak inward current at 0mV was normalised to cell capacitance (pA/pF). […]
A general note: Patch clamp records ionic current or voltage across a cell membrane.
As a reminder, the IC50 is the concentration that gives 50% inhibition. In the case of `CC[C@H](C)[C@H](NC(=O)[C@H](CCC(N)=O)NC(=O)[C@H](Cc1ccc(O)cc1)NC(=O)[C@H](CCCCN)NC(=O)[C@@H]1CSSC[C@@H]2NC(=O)[C@H](CCC(N)=O)NC(=O)[C@H](CC(=O)O)NC(=O)[C@H](CC(N)=O)NC(=O)[C@H](CO)NC(=O)[C@@H]3CCCN3C(=O)[C@H](CC(N)=O)NC(=O)[C@@H]3CSSC[C@H](NC(=O)[C@H](C(C)C)NC(=O)[C@H](CC(C)C)NC(=O)[C@H](CCCCN)NC(=O)[C@H](CO)NC(=O)[C@H](CO)NC(=O)[C@H](CCCCN)NC(=O)[C@H](CSSC[C@H](NC(=O)[C@@H](N)CCC(=O)O)C(=O)N[C@@H](CC(C)C)C(=O)N[C@@H](CCC(=O)O)C(=O)N[C@@H]([C@@H](C)CC)C(=O)N[C@@H](Cc4ccccc4)C(=O)N[C@@H](CCCCN)C(=O)N[C@@H](C)C(=O)N3)NC2=O)C(=O)N[C@@H](CO)C(=O)N[C@@H](CCCNC(=N)N)C(=O)N[C@@H](CCCCN)C(=O)N[C@@H]([C@@H](C)O)C(=O)N[C@@H](CCCNC(=N)N)C(=O)N[C@@H](Cc2c[nH]c3ccccc23)C(=O)N1)C(=O)NCC(N)=O` [HwTx-IV^G36(amide)], the IC50 worked out at 33 ± 9 nM.
`CC[C@H](C)[C@H](NC(=O)[C@H](CCC(N)=O)NC(=O)[C@H](Cc1ccc(O)cc1)NC(=O)[C@H](CCCCN)NC(=O)[C@@H]1CSSC[C@@H]2NC(=O)[C@H](CCC(N)=O)NC(=O)[C@H](CC(=O)O)NC(=O)[C@H](CC(N)=O)NC(=O)[C@H](CO)NC(=O)[C@@H]3CCCN3C(=O)[C@H](CC(N)=O)NC(=O)[C@@H]3CSSC[C@H](NC(=O)[C@H](C(C)C)NC(=O)[C@H](CC(C)C)NC(=O)[C@H](CCCCN)NC(=O)[C@H](CO)NC(=O)[C@H](CO)NC(=O)[C@H](CCCCN)NC(=O)[C@H](CSSC[C@H](NC(=O)[C@@H](N)CCC(=O)O)C(=O)N[C@@H](CC(C)C)C(=O)N[C@@H](CCC(=O)O)C(=O)N[C@@H]([C@@H](C)CC)C(=O)N[C@@H](Cc4ccccc4)C(=O)N[C@@H](CCCCN)C(=O)N[C@@H](C)C(=O)N3)NC2=O)C(=O)N[C@@H](CO)C(=O)N[C@@H](CCCNC(=N)N)C(=O)N[C@@H](CCCCN)C(=O)N[C@@H]([C@@H](C)O)C(=O)N[C@@H](CCCNC(=N)N)C(=O)N[C@@H](Cc2c[nH]c3ccccc23)C(=O)N1)C(=O)O` [HwTx-IV(acid)]: the IC50 is 463 to 727 nM and 727 nM and 463 nM.
Next, `CC[C@H](C)[C@H](NC(=O)[C@H](CCC(N)=O)NC(=O)[C@H](Cc1ccc(O)cc1)NC(=O)[C@H](CCCCN)NC(=O)[C@@H]1CSSC[C@@H]2NC(=O)[C@H](CCC(N)=O)NC(=O)[C@H](CC(=O)O)NC(=O)[C@H](CC(N)=O)NC(=O)[C@H](CO)NC(=O)[C@@H]3CCCN3C(=O)[C@H](CC(N)=O)NC(=O)[C@@H]3CSSC[C@H](NC(=O)[C@H](C(C)C)NC(=O)[C@H](CC(C)C)NC(=O)[C@H](CCCCN)NC(=O)[C@H](CO)NC(=O)[C@H](CO)NC(=O)[C@H](CCCCN)NC(=O)[C@H](CSSC[C@H](NC(=O)[C@@H](N)CCC(=O)O)C(=O)N[C@@H](CC(C)C)C(=O)N[C@@H](CCC(=O)O)C(=O)N[C@@H]([C@@H](C)CC)C(=O)N[C@@H](Cc4ccccc4)C(=O)N[C@@H](CCCCN)C(=O)N[C@@H](C)C(=O)N3)NC2=O)C(=O)N[C@@H](CO)C(=O)N[C@@H](CCCNC(=N)N)C(=O)N[C@@H](CCCCN)C(=O)N[C@@H]([C@@H](C)O)C(=O)N[C@@H](CCCNC(=N)N)C(=O)N[C@@H](Cc2c[nH]c3ccccc23)C(=O)N1)C(=O)NCC(=O)O` [HwTx-IV^G36(acid)]: 190 nM and 195 nM.
